Experimental data taken from patent publication EP2363135B1, “Anti-jellyfish compositions” (Antonio Puig, S.A., priority 2010, dated 2011).
Where two headings read alike, the source gives them in different places.

What was measured:
[1] = test system: Pelagia noctiluca; test: in vitro inhibition of cnidocyst discharge, physical contact with a gelatin probe; assay type: cell-based; conditions: 0.5 M in gelatin probe; for Discharged cnidocysts/mm^2 (%): control = 100; for Inhibition (%): versus control
Method: The efficacy of plant extracts and phytocompounds, in inhibiting cnidocyst discharge of Pelagia noctiluca (which is one of the most common species along the Mediterranean Sea) was evaluated by physical contact with a gelatin probe. Said probes, besides stimulating the cnidocyte battery, retained the different types of discharged cnidocysts that can have different sizes, thereby allowing a quantitative evaluation of the response.
Each gelatin probe was made coating one end of a 6 cm length of monofilament fishing line (1 mm diameter) with 25% (w/v) gelatin in deionized water and then placed in a humidified atmosphere during 30 minutes for gelatin solidification. The different substances to be tested were dissolved in deionized water at selected concentrations before the addition of gelatin: oat extract (Burgundi Cosmetics) and tea extract (Symrise lberica) were used at a final concentration of active agent of 0.025 % (w/v); dipotassium glycyrrhizate and hydroxytyrosol were used at a concentration of 0.5 M. Plain gelatin covered probes (no embebed active compound) were used as controls and represented maximum discharge figures.
After solidification, each gelatin probe was gently wiped across oral arms of Pelagia noctiluca 5 times from 1 to 5 seconds in the tanks. The probes were then placed in humidified atmosphere plates and observed under a steroemicroscope for cnidocyst quantification. Individual cnidocysts that had discharged into the gelatin probes were counted in 7 different fields of view and the mean value was calculated. Results are the average of triplicate probes.
An inhibitory effect was considered if the substance diminished the number of discharged nematocytes per mm^2 of gelatin probe as compared with controls.
The graphical representation of the interaction between two active compounds could be expressed as follows. […] The straight line connecting the effects of both substances on their own is the locus of points that will produce this effect in a simple additive combination, the additivity line.
FIG. 1 and FIG. 2 represent, respectively, the interaction between oat extract and lanthanum and tea extract and lanthanum in the inhibition of cnidocyst discharge. The number of discharged cnidocysts in Pelagia noctiluca was analysed for each combination of active agents by physical contact with a gelatin probe as described in Example 2. The doses of each of the constituents are referred as concentrations of active agent, i.e. of pure oat or green tea extract, and lanthanum cation.

[2] = test system: in situ cnidocytes of Pelagia noctiluca (Scyphozoa); conditions: cited from earlier work

SMILES | Discharged cnidocysts/mm^2 (%) [1] | Inhibition (%) [1] | cnidocyst discharge ([2]; oral arms previously treated with 20 µmol/L) | cnidocyst discharge ([2]; oral arms previously treated with 2 mmol/L)
CC1(C)[C@@H](O[C@H]2O[C@H](C(=O)O)[C@@H](O)[C@H](O)[C@H]2O[C@@H]2O[C@H](C(=O)O)[C@@H](O)[C@H](O)[C@H]2O)CC[C@]2(C)[C@H]3C(=O)C=C4[C@@H]5C[C@@](C)(C(=O)O)CC[C@]5(C)CC[C@@]4(C)[C@]3(C)CC[C@@H]12 [Dipotassium glycyrrhizate, dipotassium glycyrrhizate] | 32,7% | -67,3% | – | –
[Gd+3] [Gd^3+, gadolinium] | – | – | the discharge was inhibited | –
[La+3] [La^3+, lanthanum] | – | – | – | the discharge was inhibited
OCCc1ccc(O)c(O)c1 [WHidroxytyrosol, hydroxytyrosol] | 43,6% | -56,4% | – | –
